Key:
[1] = tested on: HBeAg (surrogate marker for cccDNA) in HepDES19 cells; experiment: Engineered HepDES19 primary screen assay (HBeAg ELISA); assay type: cell-based, HBV; details: Hepatitis B virus, HepDES19, 120 h, read-out: IC50 (HBeAg level, HepDES19 primary screen assay), HepDES19 cells, 5 days compound incubation, HBeAg ELISA
Procedure, shortened: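 IC50 values come from 4-parameter logistic fits of HBeAg ELISA signal, the cccDNA surrogate, with CCK-8 run in parallel for viability. Compounds at half-log dilutions with 1% DMSO were applied for 5 days at 37 °C to HepDES19 cells previously cultured 8 days without Tet.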

[2] = Human microsome stability assay; assay type: in vitro ADME; details: human liver microsomes, 1 μM test compound, 0.5 mg/mL microsomal protein, 37° C., pH 7.4, 0-30 minutes
Procedure, shortened: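 Parent compound remaining was measured by LC-MS/MS at 0, 3, 6, 9, 15 and 30 min, following ACN quench. Reactions held 1 μM compound and 0.5 mg/mL human liver microsomal protein in pH 7.4 phosphate buffer at 37 °C, started by NADPH regeneration (1 mM NADP, 1 mM MgCl2); controls lacked NADPH.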

| Structure (SMILES) | IC50 [1] | Clearance of Human microsome [2] |
| --- | --- | --- |
| Cc1cc(OCCO[C@H]2C[C@@H](C(=O)O)C2)c(-c2cc(=O)c3cccc(Cl)c3o2)cc1C(F)F [Example C075, Cis-3-[2-[2-(8-chloro-4-oxo-chromen-2-yl)-4-(difluoromethyl)-5-methyl-phenoxy]ethoxy]cyclobutanecarboxylic acid] | 10.9 µM | 6.15 mL/min/kg |
| COc1cc(-c2cc(=O)c3cccc(Cl)c3o2)c(OCCO[C@H]2C[C@@H](C(=O)O)C2)cc1O [Example C076, Cis-3-[2-[2-(8-chloro-4-oxo-chromen-2-yl)-5-hydroxy-4-methoxy-phenoxy]ethoxy]cyclobutanecarboxylic acid] | 0.502 µM | 6.15 mL/min/kg |
| COc1cc(-c2cc(=O)c3cccc(Cl)c3o2)c(OCCO[C@H]2C[C@@H](C(=O)O)C2)cc1OCC1CC1 [Example C079, Cis-3-[2-[2-(8-chloro-4-oxo-chromen-2-yl)-5-(cyclopropylmethoxy)-4-methoxy-phenoxy]ethoxy]cyclobutanecarboxylic acid] | 5.5 µM | 6.15 mL/min/kg |
| COc1cc(OCCO[C@H]2C[C@@H](C(=O)O)C2)c(-c2cc(=O)c3cccc(Cl)c3o2)cc1O [Example C083, cis-3-[2-[2-(8-chloro-4-oxo-chromen-2-yl)-4-hydroxy-5-methoxy-phenoxy]ethoxy]cyclobutanecarboxylic acid] | 4.59 µM | 6.15 mL/min/kg |
| O=c1cc(-c2cc(OC(F)F)c(OC(F)F)cc2OCCO[C@H]2C[C@@H](C(=O)O)C2)oc2c(Cl)cccc12 [Example C087, cis-3-[2-[2-(8-chloro-4-oxo-chromen-2-yl)-4,5-bis(difluoromethoxy)phenoxy]ethoxy]cyclobutanecarboxylic acid] | 6.35 µM | 6.15 mL/min/kg |
| CCOc1cc(OCCO[C@H]2C[C@@H](C(=O)O)C2)c(-c2cc(=O)c3cccc(Cl)c3o2)cc1OCC [Example C088, Cis-3-[2-[2-(8-chloro-4-oxo-chromen-2-yl)-4,5-diethoxy-phenoxy]ethoxy]cyclobutanecarboxylic acid] | 10.3 µM | 6.15 mL/min/kg |
| COc1cc(OCCO[C@H]2C[C@@H](C(=O)O)C2)c(-c2cc(=O)c3cccc(Cl)c3o2)cc1OC(F)(F)F [Example C089, Cis-3-[2-[2-(8-chloro-4-oxo-chromen-2-yl)-5-methoxy-4-(trifluoromethoxy)phenoxy]ethoxy]cyclobutanecarboxylic acid] | 3.78 µM | 6.15 mL/min/kg |
| CC1(C)C(=O)Nc2cc(-c3cc(=O)c4cccc(Cl)c4o3)c(OCCO[C@H]3C[C@@H](C(=O)O)C3)cc21 [Example C092, cis-3-[2-[6-(8-chloro-4-oxo-chromen-2-yl)-3,3-dimethyl-2-oxo-indolin-5-yl]oxyethoxy]cyclobutanecarboxylic acid] | 11.2 µM | 6.15 mL/min/kg |
| CN1C(=O)C(C)(C)c2cc(OCCO[C@H]3C[C@@H](C(=O)O)C3)c(-c3cc(=O)c4cccc(Cl)c4o3)cc21 [Example C093, Cis-3-[2-[6-(8-chloro-4-oxo-chromen-2-yl)-1,3,3-trimethyl-2-oxo-indolin-5-yl]oxyethoxy]cyclobutanecarboxylic acid] | 7.79 µM | 6.15 mL/min/kg |
| O=c1cc(-c2ccccc2OCCO[C@H]2C[C@@H](C(=O)O)C2)oc2c(Cl)ccc(C(F)(F)F)c12 [Example C094, cis-3-[2-[2-[8-chloro-4-oxo-5-(trifluoromethyl)chromen-2-yl]phenoxy]ethoxy]cyclobutanecarboxylic acid] | 0.04 µM | 6.15 mL/min/kg |
| CCOc1ccc(-c2cc(=O)c3c(C(F)(F)F)ccc(Cl)c3o2)c(OCCO[C@H]2C[C@@H](C(=O)O)C2)c1 [Example C095, cis-3-[2-[2-[8-chloro-4-oxo-5-(trifluoromethyl)chromen-2-yl]-5-ethoxy-phenoxy]ethoxy]cyclobutanecarboxylic acid] | 3.29 µM | 9.62 mL/min/kg |
| COc1cc(OCCO[C@H]2C[C@@H](C(=O)O)C2)c(-c2cc(=O)c3c(O)ccc(Cl)c3o2)cc1OC [Example C098, cis-3-[2-[2-(8-chloro-5-hydroxy-4-oxo-chromen-2-yl)-4,5-dimethoxy-phenoxy]ethoxy]cyclobutanecarboxylic acid] | 8.56 µM | 6.15 mL/min/kg |
| O=c1cc(-c2ccc(C(F)(F)F)cc2OCCO[C@H]2C[C@@H](C(=O)O)C2)oc2c(Cl)ccc(O)c12 [Example C099, cis-3-[2-[2-(8-chloro-5-hydroxy-4-oxo-chromen-2-yl)-5-(trifluoromethyl)phenoxy]ethoxy]cyclobutanecarboxylic acid] | 15.7 µM | 7.11 mL/min/kg |
| O=C(O)COCCCOc1cc(C(F)(F)F)ccc1-c1cc(=O)c2c(O)ccc(Cl)c2o1 [Example C100, 2-[3-[2-(8-chloro-5-hydroxy-4-oxo-chromen-2-yl)-5-(trifluoromethyl)phenoxy]propoxy]acetic acid] | 0.691 µM | 6.15 mL/min/kg |
| COc1c(-c2ccc(Br)cc2OCCO[C@H]2C[C@@H](C(=O)O)C2)oc2c(Cl)cccc2c1=O [Example C101, Cis-3-[2-[5-bromo-2-(8-chloro-3-methoxy-4-oxo-chromen-2-yl)phenoxy]ethoxy]cyclobutanecarboxylic acid] | 2.38 µM | 6.15 mL/min/kg |
| O=c1cc(-c2cc3c(cc2OCCO[C@H]2C[C@@H](C(=O)O)C2)OC(F)(F)O3)oc2c(Cl)cccc12 [Example C102, Cis-3-[2-[[6-(8-chloro-4-oxo-chromen-2-yl)-2,2-difluoro-1,3-benzodioxol-5-yl]oxy]ethoxy]cyclobutanecarboxylic acid] | 7 µM | 7.11 mL/min/kg |
| O=C(O)C1CCC(OCCCOc2cc(C(F)(F)F)ccc2-c2cc(=O)c3cccc(Cl)c3o2)C1 (stereo not shown) [Example C104, 3-[3-[2-(8-chloro-4-oxo-chromen-2-yl)-5-(trifluoromethyl)phenoxy]propoxy]cyclopentanecarboxylic acid] | 4.46 µM | 6.15 mL/min/kg |
| O=C(O)C1CCC(OCCCOc2cc(Br)ccc2-c2cc(=O)c3cccc(Cl)c3o2)C1 (stereo not shown) [Example C105, 3-[3-[5-bromo-2-(8-chloro-4-oxo-chromen-2-yl)phenoxy]propoxy]cyclopentanecarboxylic acid] | 1.74 µM | 6.15 mL/min/kg |
| CC(C)(COc1cc(Br)ccc1-c1cc(=O)c2cccc(Cl)c2o1)CO[C@H]1C[C@@H](C(=O)O)C1 [Example C110-A, cis-3-[3-[5-bromo-2-(8-chloro-4-oxo-chromen-2-yl)phenoxy]-2,2-dimethyl-propoxy]cyclobutanecarboxylic acid] | 0.433 µM | 6.15 mL/min/kg |
| CC(C)(COc1cc(Br)ccc1-c1cc(=O)c2cccc(Cl)c2o1)CO[C@H]1C[C@H](C(=O)O)C1 [Example C110-B, trans-3-[3-[5-bromo-2-(8-chloro-4-oxo-chromen-2-yl)phenoxy]-2,2-dimethyl-propoxy]cyclobutanecarboxylic acid] | 3.74 µM | 6.15 mL/min/kg |

— patent publication US11708344B2, “Flavone derivatives for the treatment and prophylaxis of hepatitis B virus disease” (Hoffmann-La Roche Inc., priority 2018, dated 2023)
